Experimental data reported in ChEMBL document CHEMBL5233249, “Recent advancements in the development of heterocyclic anti-inflammatory agents” (Eur J Med Chem, 2020).
pIC50: −log10 of the molar value.

Key:
[1] = biological target: Prostaglandin G/H synthase 1 (Homo sapiens, UniProt P23219); experiment: Inhibition of COX-1 (unknown origin) at 40 uM relative to control
Mus musculus [2] = experiment: Anti-inflammatory activity in Carrageenan-induced paw edema in PO dosed mouse at 100 mg/kg assessed as inhibition of edema measured after 3 hr relative to control; assay type: functional; set-up: scale not given: the % may be the effect or the level left
Rattus norvegicus [3] = experiment: Anti-inflammatory activity in Carrageenan-induced paw edema in PO dosed rat model at 10 mg/kg assessed as inhibition of paw edema measured after 4 hrs relative to control; assay type: functional
Rattus norvegicus [4] = experiment: Anti-inflammatory activity in Carrageenan-induced paw edema in PO dosed rat model at 20 mg/kg assessed as inhibition of paw edema measured after 4 hrs relative to control; assay type: functional
[5] = biological target: T1, Polyunsaturated fatty acid 5-lipoxygenase (Homo sapiens, UniProt P09917); experiment: Inhibition of 5-LOX (unknown origin) after 5 mins by colorimetric method
T1 sequence (P09917 whole entry): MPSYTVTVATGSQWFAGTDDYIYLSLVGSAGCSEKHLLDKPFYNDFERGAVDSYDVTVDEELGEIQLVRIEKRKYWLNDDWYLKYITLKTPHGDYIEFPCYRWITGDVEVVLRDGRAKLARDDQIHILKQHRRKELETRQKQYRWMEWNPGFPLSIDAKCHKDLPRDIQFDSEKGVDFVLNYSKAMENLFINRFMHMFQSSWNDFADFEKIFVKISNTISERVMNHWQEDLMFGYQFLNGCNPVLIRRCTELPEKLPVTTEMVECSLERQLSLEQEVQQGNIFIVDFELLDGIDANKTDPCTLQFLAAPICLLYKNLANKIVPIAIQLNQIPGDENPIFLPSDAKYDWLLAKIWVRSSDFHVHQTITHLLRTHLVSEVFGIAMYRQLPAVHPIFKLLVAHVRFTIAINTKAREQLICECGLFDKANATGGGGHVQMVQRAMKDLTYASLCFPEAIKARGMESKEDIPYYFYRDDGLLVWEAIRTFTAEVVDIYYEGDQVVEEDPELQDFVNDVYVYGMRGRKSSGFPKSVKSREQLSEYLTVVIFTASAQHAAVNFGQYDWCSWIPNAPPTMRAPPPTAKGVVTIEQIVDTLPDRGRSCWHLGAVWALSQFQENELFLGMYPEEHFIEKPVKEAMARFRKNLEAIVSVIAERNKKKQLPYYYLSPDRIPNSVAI

Mus musculus [6] = experiment: Anti-inflammatory activity in Carrageenan-induced paw edema in […] mouse model assessed as inhibition of edema at 200 mg/kg, po relative to control; assay type: functional; set-up: scale not given: the % may be the effect or the level left
[7] = biological target: T2, Prostaglandin G/H synthase 1 (Ovis aries, UniProt P05979); experiment: Inhibition of ovine COX-1 by EIA method
T2 sequence (P05979 whole entry): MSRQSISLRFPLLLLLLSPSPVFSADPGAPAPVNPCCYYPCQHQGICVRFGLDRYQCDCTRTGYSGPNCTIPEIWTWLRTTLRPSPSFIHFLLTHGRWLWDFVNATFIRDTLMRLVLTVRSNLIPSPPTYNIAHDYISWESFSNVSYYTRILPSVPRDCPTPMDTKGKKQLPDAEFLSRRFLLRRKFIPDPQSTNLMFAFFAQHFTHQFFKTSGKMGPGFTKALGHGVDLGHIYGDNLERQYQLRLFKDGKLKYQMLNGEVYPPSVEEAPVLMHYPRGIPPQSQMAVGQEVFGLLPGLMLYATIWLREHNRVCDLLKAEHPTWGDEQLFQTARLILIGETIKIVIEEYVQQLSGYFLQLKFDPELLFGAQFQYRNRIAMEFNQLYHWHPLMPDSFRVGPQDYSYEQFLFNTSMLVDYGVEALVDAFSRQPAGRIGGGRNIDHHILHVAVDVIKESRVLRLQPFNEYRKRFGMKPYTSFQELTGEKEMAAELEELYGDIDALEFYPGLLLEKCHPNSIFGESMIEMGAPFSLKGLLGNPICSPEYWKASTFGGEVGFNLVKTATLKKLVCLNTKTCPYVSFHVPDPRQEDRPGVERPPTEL

Rattus norvegicus [8] = experiment: Anti-inflammatory activity in Carageenan-induced foot paw edema in Sprague-Dawley rat at 50 mg/kg assessed as reduction in paw edema volume relative to control; assay type: functional; set-up: scale not given: the % may be the effect or the level left
[9] = biological target: T3, Prostaglandin G/H synthase 2 (Homo sapiens, UniProt P35354); experiment: Inhibition of human COX-2 assessed as by fluorescence based microplate reader assay
T3 sequence (P35354 whole entry): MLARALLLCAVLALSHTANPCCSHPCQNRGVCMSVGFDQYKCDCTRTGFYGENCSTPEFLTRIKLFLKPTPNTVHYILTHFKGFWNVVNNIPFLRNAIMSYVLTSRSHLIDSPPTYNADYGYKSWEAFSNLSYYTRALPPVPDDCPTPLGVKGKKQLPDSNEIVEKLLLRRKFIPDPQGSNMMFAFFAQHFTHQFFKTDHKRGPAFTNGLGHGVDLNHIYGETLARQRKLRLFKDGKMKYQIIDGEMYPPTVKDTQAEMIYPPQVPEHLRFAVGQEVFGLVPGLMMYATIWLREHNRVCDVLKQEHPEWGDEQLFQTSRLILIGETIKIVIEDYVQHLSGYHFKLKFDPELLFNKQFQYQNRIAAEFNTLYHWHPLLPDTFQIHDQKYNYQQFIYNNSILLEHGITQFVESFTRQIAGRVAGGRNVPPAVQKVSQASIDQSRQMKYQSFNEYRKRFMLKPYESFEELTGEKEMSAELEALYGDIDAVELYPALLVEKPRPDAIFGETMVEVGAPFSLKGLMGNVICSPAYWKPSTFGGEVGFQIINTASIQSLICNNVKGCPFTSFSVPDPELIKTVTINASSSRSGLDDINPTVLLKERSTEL

Rattus norvegicus [10] = experiment: Anti-inflammatory activity in Carrageenan-induced paw edema in Wistar albino rat assessed as inhibition of edema measured after 1 hr relative to control; assay type: functional; set-up: scale not given: the % may be the effect or the level left
Rattus norvegicus [11] = experiment: Anti-inflammatory activity in Carrageenan-induced paw edema in Wistar albino rat assessed as inhibition of edema measured after 3 hr relative to control; assay type: functional; set-up: scale not given: the % may be the effect or the level left
Rattus norvegicus [12] = experiment: Anti-inflammatory activity in Carrageenan-induced paw edema in Wistar albino rat assessed as inhibition of edema measured after 5 hr relative to control; assay type: functional; set-up: scale not given: the % may be the effect or the level left
Rattus norvegicus [13] = experiment: Anti-inflammatory activity against formalin-induced foot paw edema in PO dosed rat at 10 mg/kg assessed as inhibition of edema measured after 1 hr relative to control; assay type: functional; set-up: scale not given: the % may be the effect or the level left
Mus musculus [14] = experiment: Analgesic activity in PO dosed Swiss albino mouse assessed as protection of paw edema measured after 2 hrs at 20 mg/kg relative to control; assay type: functional
Mus musculus [15] = experiment: Anti-inflammatory activity in Carrageenan-induced paw edema mouse model assessed as inhibition of granuloma measured after 24 hrs relative to control; assay type: functional
Rattus norvegicus [16] = experiment: Anti-inflammatory activity against formalin-induced foot paw edema in Wistar rat at 5 mg/kg, po assessed as inhibition of edema measured after 4 hr relative to control; assay type: functional
Rattus norvegicus [17] = experiment: Ulcerogenic activity in Swiss albino Wistar rat assessed as ulcer lesion score at 100 mg/kg, po; assay type: functional
Rattus norvegicus [18] = experiment: Anti-inflammatory activity in Carrageenan-induced paw edema in PO dosed Swiss albino rat model at 10 mg/kg assessed as inhibition in volume of edema measured after 1 hrs relative to control; assay type: functional
Rattus norvegicus [19] = experiment: Anti-inflammatory activity in Carrageenan-induced paw edema in Wistar albino rat assessed as reduction in paw edema measured after 1 hr relative to control; assay type: functional; set-up: scale not given: the % may be the effect or the level left
Rattus norvegicus [20] = experiment: Anti-inflammatory activity in Carrageenan-induced paw edema in Wistar albino rat assessed as reduction in paw edema measured after 2 hr relative to control; assay type: functional; set-up: scale not given: the % may be the effect or the level left
Rattus norvegicus [21] = experiment: Anti-inflammatory activity in Carrageenan-induced paw edema in Wistar albino rat assessed as reduction in paw edema measured after 3 hr relative to control; assay type: functional; set-up: scale not given: the % may be the effect or the level left
Rattus norvegicus [22] = experiment: Anti-inflammatory activity against Carrageenan-induced paw edema in Wistar albino rat ulcerogenic activity assessed as reduction in severity index; assay type: functional

Prostaglandin G/H synthase 1 (Homo sapiens, UniProt P23219), sequence (P23219 whole entry): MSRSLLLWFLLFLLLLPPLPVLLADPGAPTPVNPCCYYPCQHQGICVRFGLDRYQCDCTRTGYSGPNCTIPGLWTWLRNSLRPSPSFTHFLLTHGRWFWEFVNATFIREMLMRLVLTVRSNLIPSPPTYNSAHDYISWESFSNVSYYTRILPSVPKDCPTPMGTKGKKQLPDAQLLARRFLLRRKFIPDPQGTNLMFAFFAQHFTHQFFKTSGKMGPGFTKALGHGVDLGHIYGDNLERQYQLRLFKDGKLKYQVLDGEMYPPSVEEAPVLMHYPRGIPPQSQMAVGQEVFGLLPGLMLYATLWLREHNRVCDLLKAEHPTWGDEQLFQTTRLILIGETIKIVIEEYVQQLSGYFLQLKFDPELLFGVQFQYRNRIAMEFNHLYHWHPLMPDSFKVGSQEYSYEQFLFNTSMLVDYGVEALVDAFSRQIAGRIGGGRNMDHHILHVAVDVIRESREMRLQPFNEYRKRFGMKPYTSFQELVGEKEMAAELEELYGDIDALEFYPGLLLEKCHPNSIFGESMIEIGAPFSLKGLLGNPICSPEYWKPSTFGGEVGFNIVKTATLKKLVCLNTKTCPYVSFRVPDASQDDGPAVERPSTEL

Question: Which results are given for COc1ccc(NCc2nc3ccccc3n2C(=O)c2ccccc2)cc1?
Answer: pIC50 [1]: 5.60; Activity (Mus musculus [2]): 40.3%

Question: How did the inhibition in vivo at 10 mg/kg (Rattus norvegicus [3]) turn out when Cc1nn(-c2ccccc2)c2c1C(c1ccccc1Cl)N1C=CC=NC1=N2 (centres undefined) was run?
Answer: The inhibition in vivo at 10 mg/kg was 73%.

Question: What about the inhibition in vivo at 20 mg/kg (Rattus norvegicus [4]) of the same compound?
Answer: The inhibition in vivo at 20 mg/kg was 86%.

Question: How did the pIC50 [5] turn out when Cc1ccc(N/N=C2\C(=N)N(c3ccc(S(N)(=O)=O)cc3)N=C2N)cc1 was run?
Answer: The pIC50 was 5.72.

Question: What about the Activity (Mus musculus [6]) of the same compound?
Answer: Its Activity is 15%.

Question: How did the pIC50 [7] turn out when CC1=C(c2ccc(C(=O)NNC(=S)Nc3ccccc3)cn2)SC2Nc3ccccc3N12 (centres undefined) was run?
Answer: Its pIC50 is 7.36.

Question: What about the Activity (Rattus norvegicus [8]) of the same compound?
Answer: The Activity was 79.5%.

Question: How did the pIC50 [9] turn out when CCOc1cc(C)nn1C(=O)CNc1ncnc2c1c(C)nn2-c1ccccc1 was run?
Answer: Its pIC50 is 6.80.

Question: And the Activity (Rattus norvegicus [10])?
Answer: The Activity was 82%.

Question: What about the Activity (Rattus norvegicus [11]) of the same compound?
Answer: Its Activity is 94%.

Question: What about the Activity (Rattus norvegicus [12]) of the same compound?
Answer: The Activity was 90%.

Question: O=C(NNC(=S)NCc1ccccc1)c1ccc(C2=CN3c4ccccc4NC3S2)nc1 (centres undefined) was tested. Which pIC50 [7] did it give?
Answer: The pIC50 was 7.12.

Question: What about the Activity (Rattus norvegicus [8]) of the same compound?
Answer: Its Activity is 75.9%.

Question: With CSc1nn(-c2ccc(S(C)(=O)=O)cc2)c2ncnc(NCC(=O)/N=C/c3ccco3)c12 as the compound, how does the pIC50 [7] read?
Answer: The pIC50 was 3.91.

Question: And the pIC50 [9]?
Answer: The pIC50 was 7.00.

Question: And the Activity (Rattus norvegicus [10])?
Answer: The Activity was 2%.

Question: And the Activity (Rattus norvegicus [11])?
Answer: Its Activity is 79%.

Question: What about the Activity (Rattus norvegicus [12]) of the same compound?
Answer: Its Activity is 88%.

Question: For O=C(O)Cc1ccccc1Nc1c(Cl)cccc1Cl [DICLOFENAC], which Activity (Rattus norvegicus [13]) is on record?
Answer: The Activity was 30.43%.

Question: And the Activity (Mus musculus [14])?
Answer: The Activity was 65%.

Question: What about the “inhibition (INH)” value (Mus musculus [15]) of the same compound?
Answer: Its value is 36.1%.

Question: What about the inhibition in vivo at 5 mg/kg (Rattus norvegicus [16]) of the same compound?
Answer: The inhibition in vivo at 5 mg/kg was 50%.

Question: What about the Activity (Rattus norvegicus [17]) of the same compound?
Answer: Its Activity is 32.5 mm.

Question: For Cc1c(-c2ccccc2)n(C(=O)c2ccccc2)c2ccc(S(C)(=O)=O)cc12, which inhibition in vivo at 10 mg/kg (Rattus norvegicus [18]) is on record?
Answer: Its inhibition in vivo at 10 mg/kg is 73.1%.

Question: For Clc1ccccc1-c1nnc(Cn2c(CN3CCOCC3)nc3ccccc32)o1, which Activity (Rattus norvegicus [19]) is on record?
Answer: The Activity was 38.54%.

Question: What about the Activity (Rattus norvegicus [20]) of the same compound?
Answer: The Activity was 67.12%.

Question: What about the Activity (Rattus norvegicus [21]) of the same compound?
Answer: The Activity was 74.17%.

Question: And the Activity (Rattus norvegicus [22])?
Answer: The Activity was 0.28 mm.
